Format in all cases: biochemical
In one experiment the target is factor XIa (Homo sapiens, UniProt P03951). The experiment is described as follows: Inhibition of factor XIa, hydrolysis kinetics of chromogenic substrate S2366. The conditions noted are these: for inhibition at 30 µM / Percent Inhibition at 30 μM ± SEM (n = 3), XIa: 30 μM compound, factor XIa 5 nmol/L, S2366 200 µmol/L, negative values denote percent activation; for inhibition at 30 µM: read-out: Percent Inhibition at 30 μM ± SEM (n = 3), XIa; for IC50: substrate S2366, buffer solution, read-out: IC50, μM ± SEM (n = 3), XIa. The source says: (§1) The inhibition of the blood coagulation factors Xa and XIa or plasmin by the synthesized compounds 5a–o was studied by measuring the kinetics of hydrolysis of substrates specific for each of these enzymes in the presence of the compounds. A specific low-molecular-weight chromogenic substrate S2765 (Z-D-Arg-Gly-Arg-pNA·2HCl) was used in the case of factor Xa, substrate S2366 (pyroGlu-Pro-Arg-pNA·HCl) was used for factor XIa, and S2288 (H-D-Ile-Pro-Arg-pNA·2HCl) was used for plasmin (all from Chromogenix, West Chester, PA, USA). A buffer containing 140 mM NaCl, 20 mM HEPES, and 0.1% PEG 6000 (pH 8.0) was placed in the wells of a 96-well plate, followed by the addition of factor Xa or XIa (final concentration 5 nmol·L^−1) or plasmin (final concentration 10 nmol L^−1); the substrate S2765, S2366, or S2288 (final concentration 200 µmol·L^−1); and a solution of the test compound in DMSO (final concentration 30 µmol·L^−1, the DMSO content in the well was no more than 2%). The kinetics of the formation of p-nitroaniline was measured using an Eppendorf PlateReader AF2200 microplate reader (Eppendorf, Hamburg, Germany) by the absorption of light with a wavelength of 405 nm. The initial rate of substrate degradation was determined from the initial slope of the 4-nitroaniline formation curve.
Sequence of factor XIa (P03951 388-625 limits assumed): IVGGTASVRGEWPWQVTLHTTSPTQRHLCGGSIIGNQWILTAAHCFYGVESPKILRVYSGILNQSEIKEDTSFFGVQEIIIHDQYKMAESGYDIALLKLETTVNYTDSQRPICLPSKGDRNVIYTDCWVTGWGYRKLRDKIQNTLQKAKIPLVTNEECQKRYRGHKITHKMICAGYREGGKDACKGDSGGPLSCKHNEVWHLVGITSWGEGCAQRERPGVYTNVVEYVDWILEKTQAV
Sequence of factor XIa (P03951 19-387 partner limits assumed): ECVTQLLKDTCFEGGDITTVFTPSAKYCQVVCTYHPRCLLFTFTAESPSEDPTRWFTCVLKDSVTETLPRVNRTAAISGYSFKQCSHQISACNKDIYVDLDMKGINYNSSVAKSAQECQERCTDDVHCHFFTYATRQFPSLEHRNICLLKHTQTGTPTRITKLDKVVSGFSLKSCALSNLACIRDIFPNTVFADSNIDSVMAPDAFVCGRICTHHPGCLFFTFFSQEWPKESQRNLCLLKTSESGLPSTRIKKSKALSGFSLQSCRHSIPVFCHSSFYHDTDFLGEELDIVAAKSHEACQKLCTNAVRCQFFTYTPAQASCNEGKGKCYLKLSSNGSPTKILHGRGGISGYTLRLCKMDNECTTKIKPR
(§2) The absolute value of negative inhibition values denotes percent activation.
(§3) The data obtained were processed using the GraphPad Prism 8.0.1 (244) and OriginPro 8 software.

A further experiment has as its target factor Xa (Homo sapiens, UniProt P00742). The experiment can be described thus: Inhibition of factor Xa, hydrolysis kinetics of chromogenic substrate S2765. The conditions noted are these: for inhibition at 30 µM / Percent Inhibition at 30 μM ± SEM (n = 3), Xa: 30 μM compound, factor Xa 5 nmol/L, S2765 200 µmol/L, negative values denote percent activation; for inhibition at 30 µM: read-out: Percent Inhibition at 30 μM ± SEM (n = 3), Xa; for IC50: substrate S2765, buffer solution, read-out: IC50, μM ± SEM (n = 3), Xa.
Excerpt: as §1, §2, §3

In another experiment the target is plasmin (Homo sapiens, UniProt P00747). The experiment is described as follows: Inhibition of plasmin, hydrolysis kinetics of chromogenic substrate S2288 (selectivity). The conditions noted are these: 30 μM compound, plasmin 10 nmol/L, S2288 200 µmol/L; for inhibition at 30 µM: read-out: Percent Inhibition at 30 μM ± SEM (n = 3), Plasmin.
Sequence of plasmin (P00747 581-810 limits assumed, species assumed): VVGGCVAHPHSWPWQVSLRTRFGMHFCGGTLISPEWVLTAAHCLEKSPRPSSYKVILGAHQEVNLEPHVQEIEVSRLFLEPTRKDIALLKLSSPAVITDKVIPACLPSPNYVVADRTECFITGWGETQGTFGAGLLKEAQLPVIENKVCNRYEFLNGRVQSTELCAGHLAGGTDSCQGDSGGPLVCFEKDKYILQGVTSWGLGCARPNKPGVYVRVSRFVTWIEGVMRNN
Sequence of plasmin (P00747 97-580 partner limits assumed, species assumed): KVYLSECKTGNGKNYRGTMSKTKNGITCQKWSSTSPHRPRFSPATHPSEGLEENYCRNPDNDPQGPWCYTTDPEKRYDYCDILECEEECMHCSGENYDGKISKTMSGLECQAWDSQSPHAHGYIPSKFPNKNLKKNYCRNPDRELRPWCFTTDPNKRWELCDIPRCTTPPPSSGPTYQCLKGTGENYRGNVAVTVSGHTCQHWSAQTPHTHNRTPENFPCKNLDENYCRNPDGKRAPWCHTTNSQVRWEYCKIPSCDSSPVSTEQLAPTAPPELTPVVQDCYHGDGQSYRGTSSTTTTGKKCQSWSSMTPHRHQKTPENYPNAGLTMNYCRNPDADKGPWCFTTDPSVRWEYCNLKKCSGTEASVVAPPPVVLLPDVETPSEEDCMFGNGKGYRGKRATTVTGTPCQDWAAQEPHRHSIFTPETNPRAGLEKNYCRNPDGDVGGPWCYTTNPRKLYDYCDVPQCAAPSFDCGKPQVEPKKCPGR
Excerpt: as §1, §2, §3

Structures are written as SMILES. A value given as a limit tells only on which side of the number the result lay.

Sequence of factor Xa (P00742 235-488 limits assumed): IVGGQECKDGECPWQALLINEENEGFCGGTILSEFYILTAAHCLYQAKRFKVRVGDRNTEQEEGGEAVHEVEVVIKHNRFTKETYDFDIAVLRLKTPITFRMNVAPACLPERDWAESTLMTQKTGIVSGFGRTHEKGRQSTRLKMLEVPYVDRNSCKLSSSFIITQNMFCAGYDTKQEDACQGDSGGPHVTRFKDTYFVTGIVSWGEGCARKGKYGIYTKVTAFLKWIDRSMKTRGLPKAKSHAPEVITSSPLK
Sequence of factor Xa (P00742 41-179 partner limits assumed): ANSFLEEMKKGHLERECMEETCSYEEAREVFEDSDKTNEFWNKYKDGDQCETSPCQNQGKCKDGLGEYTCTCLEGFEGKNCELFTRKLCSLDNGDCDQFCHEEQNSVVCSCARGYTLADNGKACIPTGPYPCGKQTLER

As for `COc1cc2c3c(c1)C(C)CC(C)(C)N3C(=O)/C2=N\Nc1nc(-c2ccc(Cl)cc2)cs1` (stereo not drawn) [5a, (Z)-1-(2-(4-(4-Chlorophenyl)thiazol-2-yl)hydrazineylidene)-8-methoxy-4,4,6-trimethyl-5,6-dihydro-4H-pyrrolo[3,2,1-ij]quinolin-2(1H)-one], the inhibition at 30 µM at factor XIa is -13 ± 11%; at factor Xa it was -30 ± 7%.

`COc1cc2c3c(c1)C(C)CC(C)(C)N3C(=O)/C2=N\Nc1nc(-c2ccc(F)cc2)cs1` (stereo not drawn) [5b, (Z)-1-(2-(4-(4-Fluorophenyl)thiazol-2-yl)hydrazineylidene)-8-methoxy-4,4,6-trimethyl-5,6-dihydro-4H-pyrrolo[3,2,1-ij]quinolin-2(1H)-one]: the inhibition at 30 µM is -6 ± 10% on factor XIa and -30 ± 10% on factor Xa.

Regarding `COc1cc2c3c(c1)C(C)CC(C)(C)N3C(=O)/C2=N\Nc1nc(-c2ccc(Br)cc2)cs1` (stereo not drawn) [5c, (Z)-1-(2-(4-(4-Bromophenyl)thiazol-2-yl)hydrazineylidene)-8-methoxy-4,4,6-trimethyl-5,6-dihydro-4H-pyrrolo[3,2,1-ij]quinolin-2(1H)-one], the inhibition at 30 µM was -7 ± 8% at factor XIa and -40 ± 10% at factor Xa.

On to `CC1CC(C)(C)N2C(=O)/C(=N\Nc3nc(-c4ccc(F)cc4)cs3)c3cc(Cl)cc1c32` (stereo not drawn) [5d, (Z)-8-Chloro-1-(2-(4-(4-fluorophenyl)thiazol-2-yl)hydrazineylidene)-4,4,6-trimethyl-5,6-dihydro-4H-pyrrolo[3,2,1-ij]quinolin-2(1H)-one], for which, on factor XIa, the “Percent Inhibition at 30 μM ± SEM (n = 3), XIa” value was found to be 99%; the inhibition at 30 µM is 98 to 100%; the 50% inhibitory concentration (IC50) turned out to be 7.7 ± 0.05 µM. In addition, on factor Xa, the “Percent Inhibition at 30 μM ± SEM (n = 3), Xa” value amounted to 98 ± 1%; the inhibition at 30 µM lay within 98 to 100%; the concentration for half-maximal inhibition (IC50) came out at 5.43 ± 0.02 µM. Also, on plasmin, the “Percent Inhibition at 30 μM ± SEM (n = 3), Plasmin” value came out at 5 ± 1% and the inhibition at 30 µM was below 10%.

On to `COc1ccc(-c2csc(N/N=C3\C(=O)N4c5c3cc(Cl)cc5C(C)CC4(C)C)n2)cc1` (stereo not drawn) [5e, (Z)-8-Chloro-1-(2-(4-(4-methoxyphenyl)thiazol-2-yl)hydrazineylidene)-4,4,6-trimethyl-5,6-dihydro-4H-pyrrolo[3,2,1-ij]quinolin-2(1H)-one], for which the figures for the inhibition at 30 µM on factor XIa and at factor Xa were -2 ± 11% and -8 ± 10%, respectively.

Take `COc1cccc(-c2csc(N/N=C3\C(=O)N4c5c3cc(F)cc5C(C)CC4(C)C)n2)c1` (stereo not drawn) [5f, (Z)-8-Fluoro-1-(2-(4-(3-methoxyphenyl)thiazol-2-yl)hydrazineylidene)-4,4,6-trimethyl-5,6-dihydro-4H-pyrrolo[3,2,1-ij]quinolin-2(1H)-one]: the inhibition at 30 µM was -11 ± 9% on factor XIa and -25 ± 9% on factor Xa.

For `CC1(c2ccccc2)CC(C)(C)N2C(=O)/C(=N\Nc3nc(-c4ccc(Cl)cc4)cs3)c3cc(F)cc1c32` (stereo not drawn) [5g, (Z)-1-(2-(4-(4-Chlorophenyl)thiazol-2-yl)hydrazineylidene)-8-fluoro-4,4,6-trimethyl-6-phenyl-5,6-dihydro-4H-pyrrolo[3,2,1-ij]quinolin-2(1H)-one], the inhibition at 30 µM on factor XIa is 76 ± 3%; at factor Xa it was 51 ± 18%.

Consider `CC1(c2ccccc2)CC(C)(C)N2C(=O)/C(=N\Nc3nc(-c4ccc(Cl)cc4)cs3)c3cc(Br)cc1c32` (stereo not drawn) [5h, (Z)-8-Bromo-1-(2-(4-(4-chlorophenyl)thiazol-2-yl)hydrazineylidene)-4,4,6-trimethyl-6-phenyl-5,6-dihydro-4H-pyrrolo[3,2,1-ij]quinolin-2(1H)-one], for which, on factor XIa, the “Percent Inhibition at 30 μM ± SEM (n = 3), XIa” value is listed as 100%; the inhibition at 30 µM was 98 to 100%; the IC50 worked out at 7.66 ± 0.08 µM. Moreover, at factor Xa, the “Percent Inhibition at 30 μM ± SEM (n = 3), Xa” value was 99 ± 1%; the inhibition at 30 µM lay in the range of 98 to 100%; the half-maximal inhibitory concentration (IC50) turned out to be 5.75 ± 0.02 µM. Moreover, on plasmin, the “Percent Inhibition at 30 μM ± SEM (n = 3), Plasmin” value stood at 8 ± 2% and the inhibition at 30 µM is below 10%.

Turning to `COc1ccc(-c2csc(N/N=C3\C(=O)N4c5c3cccc5C(C)(c3ccc(Cl)cc3)CC4(C)C)n2)cc1` (stereo not drawn) [5i, (Z)-6-(4-Chlorophenyl)-1-(2-(4-(4-methoxyphenyl)thiazol-2-yl)hydrazineylidene)-4,4,6-trimethyl-5,6-dihydro-4H-pyrrolo[3,2,1-ij]quinolin-2(1H)-one], the results for the inhibition at 30 µM on factor XIa and at factor Xa were -14 ± 10% and -21 ± 9%, respectively.

With `COc1ccc(-c2csc(N/N=C3\C(=O)N4c5c3cc(Cl)cc5C(C)(c3ccc(Cl)cc3)CC4(C)C)n2)cc1` (stereo not drawn) [5j, (Z)-8-Chloro-6-(4-chlorophenyl)-1-(2-(4-(4-methoxyphenyl)thiazol-2-yl)hydrazineylidene)-4,4,6-trimethyl-5,6-dihydro-4H-pyrrolo[3,2,1-ij]quinolin-2(1H)-one], the inhibition at 30 µM on factor XIa is -3 ± 6%; at factor Xa, -3 ± 3%.

`CC1(c2ccc(Cl)cc2)CC(C)(C)N2C(=O)/C(=N\Nc3nc(-c4ccc(Cl)cc4)cs3)c3cc(F)cc1c32` (stereo not drawn) [5k, (Z)-6-(4-Chlorophenyl)-1-(2-(4-(4-chlorophenyl)thiazol-2-yl)hydrazineylidene)-8-fluoro-4,4,6-trimethyl-5,6-dihydro-4H-pyrrolo[3,2,1-ij]quinolin-2(1H)-one]: the figures for the inhibition at 30 µM at factor XIa and at factor Xa were 37 ± 8% and -12 ± 11%, respectively.

Consider `CC1(c2ccc(Cl)cc2)CC(C)(C)N2C(=O)/C(=N\Nc3nc(-c4ccc(F)cc4)cs3)c3cc(F)cc1c32` (stereo not drawn) [5l, (Z)-6-(4-Chlorophenyl)-8-fluoro-1-(2-(4-(4-fluorophenyl)thiazol-2-yl)hydrazineylidene)-4,4,6-trimethyl-5,6-dihydro-4H-pyrrolo[3,2,1-ij]quinolin-2(1H)-one], for which the values for the inhibition at 30 µM on factor XIa and at factor Xa were -11 ± 7% and -4 ± 3%, respectively.

For the compound `CC1(c2ccc(Cl)cc2)CC(C)(C)N2C(=O)/C(=N\Nc3nc(-c4cccc(Cl)c4)cs3)c3cc(F)cc1c32` (stereo not drawn) [5m, (Z)-6-(4-Chlorophenyl)-1-(2-(4-(3-chlorophenyl)thiazol-2-yl)hydrazineylidene)-8-fluoro-4,4,6-trimethyl-5,6-dihydro-4H-pyrrolo[3,2,1-ij]quinolin-2(1H)-one], the inhibition at 30 µM on factor XIa was -14 ± 7%; at factor Xa it was -17 ± 11%.

As for `COc1cccc(-c2csc(N/N=C3\C(=O)N4c5c3cc(F)cc5C(C)(c3ccc(Cl)cc3)CC4(C)C)n2)c1` (stereo not drawn) [5n, (Z)-6-(4-Chlorophenyl)-8-fluoro-1-(2-(4-(3-methoxyphenyl)thiazol-2-yl)hydrazineylidene)-4,4,6-trimethyl-5,6-dihydro-4H-pyrrolo[3,2,1-ij]quinolin-2(1H)-one], the inhibition at 30 µM at factor XIa is -19 ± 8%; at factor Xa, -2 ± 3%.

With `CC1(c2ccc(Cl)cc2)CC(C)(C)N2C(=O)/C(=N\Nc3nc(-c4ccccc4)cs3)c3cc(Br)cc1c32` (stereo not drawn) [5o, (Z)-8-Bromo-6-(4-chlorophenyl)-4,4,6-trimethyl-1-(2-(4-phenylthiazol-2-yl)hydrazineylidene)-5,6-dihydro-4H-pyrrolo[3,2,1-ij]quinolin-2(1H)-one], the inhibition at 30 µM on factor XIa is -11 ± 12%; at factor Xa it was -4 ± 6%.
